Assay results published in ChEMBL document CHEMBL4118122, “Identification and biological evaluation of thiazole-based inverse agonists of RORγt” (Bioorg Med Chem Lett, 2018).
In brackets after ≈: the same amount, converted by molar mass.

Columns and labels:
PXR (NR1I2) [1] = target: T1, PXR (NR1I2) (Homo sapiens, UniProt O75469); experiment: […] at PXR LBD (unknown origin) expressed in HEK293 cells […] at 1 uM after 16 hrs by luciferase reporter gene assay relative to rifampicin; assay type: ADME, cell-based; conditions: HEK293 cells expressing PXR LBD, read-out: Efficacy
T1 sequence (O75469 whole entry): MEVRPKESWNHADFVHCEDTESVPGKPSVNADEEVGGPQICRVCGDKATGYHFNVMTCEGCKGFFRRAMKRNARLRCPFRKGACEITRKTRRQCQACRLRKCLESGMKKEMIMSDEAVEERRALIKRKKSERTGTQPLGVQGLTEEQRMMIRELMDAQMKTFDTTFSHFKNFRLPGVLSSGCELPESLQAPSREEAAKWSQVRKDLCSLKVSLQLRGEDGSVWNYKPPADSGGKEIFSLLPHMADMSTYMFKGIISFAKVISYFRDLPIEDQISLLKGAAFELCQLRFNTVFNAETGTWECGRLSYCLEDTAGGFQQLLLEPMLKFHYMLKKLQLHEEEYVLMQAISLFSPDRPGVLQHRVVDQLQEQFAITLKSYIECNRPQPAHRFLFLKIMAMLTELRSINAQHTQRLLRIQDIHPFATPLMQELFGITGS

PXR (NR1I2) [2] = target: T1, PXR (NR1I2); experiment: […] at PXR LBD (unknown origin) expressed in HEK293 cells […] at 5 uM after 16 hrs by luciferase reporter gene assay relative to rifampicin; assay type: ADME, cell-based; conditions: HEK293 cells expressing PXR LBD, read-out: Efficacy
PXR (NR1I2) [3] = target: T1, PXR (NR1I2); experiment: […] at PXR LBD (unknown origin) expressed in HEK293 cells […] at 10 uM after 16 hrs by luciferase reporter gene assay relative to rifampicin; assay type: ADME, cell-based; conditions: HEK293 cells expressing PXR LBD, read-out: Efficacy
Cytochrome P450 2C9 = Cytochrome P450 2C9 (Homo sapiens, UniProt P11712); experiment: Inhibition of CYP2C9 (unknown origin); assay type: ADME
Cytochrome P450 2C8 = target: T2, Cytochrome P450 2C8 (Homo sapiens, UniProt P10632); experiment: Inhibition of CYP2C8 (unknown origin); assay type: ADME
T2 sequence (P10632 whole entry): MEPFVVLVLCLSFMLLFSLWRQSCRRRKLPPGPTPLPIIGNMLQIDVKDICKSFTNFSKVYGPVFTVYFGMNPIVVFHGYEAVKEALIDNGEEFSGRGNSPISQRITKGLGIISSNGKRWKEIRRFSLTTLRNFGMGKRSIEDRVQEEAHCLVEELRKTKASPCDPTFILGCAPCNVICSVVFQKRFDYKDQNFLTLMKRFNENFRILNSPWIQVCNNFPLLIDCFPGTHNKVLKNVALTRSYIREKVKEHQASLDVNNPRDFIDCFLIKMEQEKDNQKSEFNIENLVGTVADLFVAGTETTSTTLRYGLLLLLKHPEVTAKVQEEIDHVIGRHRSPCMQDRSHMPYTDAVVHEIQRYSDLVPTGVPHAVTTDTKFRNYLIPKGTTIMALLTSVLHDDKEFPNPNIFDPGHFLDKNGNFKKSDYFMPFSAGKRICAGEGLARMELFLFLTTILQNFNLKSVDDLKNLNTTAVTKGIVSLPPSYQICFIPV

Cytochrome P450 2D6 = Cytochrome P450 2D6 (Homo sapiens, UniProt P10635); experiment: Inhibition of CYP2D6 (unknown origin); assay type: ADME
Cytochrome P450 2C19 = Cytochrome P450 2C19 (Homo sapiens, UniProt P33261); experiment: Inhibition of CYP2C19 (unknown origin); assay type: ADME
[4] = Half life in rat microsomes; assay type: ADME, Microsome
Cytochrome P450 3A4 = Cytochrome P450 3A4 (Homo sapiens, UniProt P08684); experiment: Inhibition of CYP3A4 (unknown origin); assay type: ADME
[5] = Thermodynamic solubility of the compound in 30 mM phosphate buffer at 10 mM at pH 7 after 2 to 5 days by UV-HPLC analysis; assay type: physicochemical; conditions: read-out: Therm_solubility
[6] = Half life in human microsomes; assay type: ADME, Microsome
Cytochrome P450 1A2 = target: T3, Cytochrome P450 1A2 (Homo sapiens, UniProt P05177); experiment: Inhibition of CYP1A2 (unknown origin); assay type: ADME
T3 sequence (P05177 whole entry): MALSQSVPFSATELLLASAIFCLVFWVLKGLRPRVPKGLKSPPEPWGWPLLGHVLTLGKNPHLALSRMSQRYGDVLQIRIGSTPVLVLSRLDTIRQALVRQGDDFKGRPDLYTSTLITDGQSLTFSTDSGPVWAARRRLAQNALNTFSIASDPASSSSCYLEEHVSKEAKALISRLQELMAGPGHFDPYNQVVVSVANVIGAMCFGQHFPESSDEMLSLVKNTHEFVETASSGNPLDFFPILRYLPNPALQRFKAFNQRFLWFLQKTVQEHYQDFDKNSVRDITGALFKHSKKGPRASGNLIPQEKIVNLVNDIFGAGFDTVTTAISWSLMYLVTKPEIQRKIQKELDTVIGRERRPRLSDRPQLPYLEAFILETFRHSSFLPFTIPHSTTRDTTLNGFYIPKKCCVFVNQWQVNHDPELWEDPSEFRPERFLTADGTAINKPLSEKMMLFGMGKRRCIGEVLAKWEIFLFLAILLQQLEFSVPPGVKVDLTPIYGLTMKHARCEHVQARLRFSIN

Cytochrome P450 2C19, sequence (P33261 whole entry): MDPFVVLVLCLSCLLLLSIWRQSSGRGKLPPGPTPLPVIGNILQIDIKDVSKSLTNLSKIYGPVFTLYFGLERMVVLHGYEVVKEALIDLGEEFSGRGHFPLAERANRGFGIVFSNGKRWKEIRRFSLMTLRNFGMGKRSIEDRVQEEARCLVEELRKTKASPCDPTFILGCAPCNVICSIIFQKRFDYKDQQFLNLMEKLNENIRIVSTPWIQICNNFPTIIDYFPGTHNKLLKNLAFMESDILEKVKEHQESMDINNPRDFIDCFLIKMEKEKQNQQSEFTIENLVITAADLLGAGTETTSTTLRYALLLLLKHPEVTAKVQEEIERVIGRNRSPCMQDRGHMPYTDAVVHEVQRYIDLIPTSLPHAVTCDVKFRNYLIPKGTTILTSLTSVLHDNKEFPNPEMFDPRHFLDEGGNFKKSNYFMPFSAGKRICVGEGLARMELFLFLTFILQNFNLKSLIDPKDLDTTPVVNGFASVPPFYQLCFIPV
Cytochrome P450 2C9, sequence (P11712 whole entry): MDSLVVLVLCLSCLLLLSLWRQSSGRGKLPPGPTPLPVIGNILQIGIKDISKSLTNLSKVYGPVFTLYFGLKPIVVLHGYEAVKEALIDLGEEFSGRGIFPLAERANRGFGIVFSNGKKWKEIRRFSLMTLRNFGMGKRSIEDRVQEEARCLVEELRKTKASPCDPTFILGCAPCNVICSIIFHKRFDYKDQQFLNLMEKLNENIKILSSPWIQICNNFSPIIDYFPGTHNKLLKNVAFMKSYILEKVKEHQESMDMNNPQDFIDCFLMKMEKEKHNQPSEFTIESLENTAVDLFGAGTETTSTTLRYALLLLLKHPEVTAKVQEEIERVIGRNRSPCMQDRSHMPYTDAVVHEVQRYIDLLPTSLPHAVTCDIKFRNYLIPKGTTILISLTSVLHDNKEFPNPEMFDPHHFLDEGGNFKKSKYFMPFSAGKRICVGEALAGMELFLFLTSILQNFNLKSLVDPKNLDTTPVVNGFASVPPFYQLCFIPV
Cytochrome P450 2D6, sequence (P10635 whole entry): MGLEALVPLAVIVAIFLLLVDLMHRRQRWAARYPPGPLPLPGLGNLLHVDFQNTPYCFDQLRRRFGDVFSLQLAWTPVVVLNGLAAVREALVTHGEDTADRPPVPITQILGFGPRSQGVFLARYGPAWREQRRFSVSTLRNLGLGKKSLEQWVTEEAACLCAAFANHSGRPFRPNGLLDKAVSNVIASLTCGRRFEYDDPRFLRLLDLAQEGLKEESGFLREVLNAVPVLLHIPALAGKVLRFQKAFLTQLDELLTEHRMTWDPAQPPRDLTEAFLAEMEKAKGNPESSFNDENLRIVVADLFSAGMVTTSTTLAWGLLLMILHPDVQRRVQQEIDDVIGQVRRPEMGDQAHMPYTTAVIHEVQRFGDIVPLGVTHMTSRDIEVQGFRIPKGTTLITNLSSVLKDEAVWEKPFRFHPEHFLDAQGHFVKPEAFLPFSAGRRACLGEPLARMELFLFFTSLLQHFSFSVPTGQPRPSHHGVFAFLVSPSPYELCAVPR
Cytochrome P450 3A4, sequence (P08684 whole entry): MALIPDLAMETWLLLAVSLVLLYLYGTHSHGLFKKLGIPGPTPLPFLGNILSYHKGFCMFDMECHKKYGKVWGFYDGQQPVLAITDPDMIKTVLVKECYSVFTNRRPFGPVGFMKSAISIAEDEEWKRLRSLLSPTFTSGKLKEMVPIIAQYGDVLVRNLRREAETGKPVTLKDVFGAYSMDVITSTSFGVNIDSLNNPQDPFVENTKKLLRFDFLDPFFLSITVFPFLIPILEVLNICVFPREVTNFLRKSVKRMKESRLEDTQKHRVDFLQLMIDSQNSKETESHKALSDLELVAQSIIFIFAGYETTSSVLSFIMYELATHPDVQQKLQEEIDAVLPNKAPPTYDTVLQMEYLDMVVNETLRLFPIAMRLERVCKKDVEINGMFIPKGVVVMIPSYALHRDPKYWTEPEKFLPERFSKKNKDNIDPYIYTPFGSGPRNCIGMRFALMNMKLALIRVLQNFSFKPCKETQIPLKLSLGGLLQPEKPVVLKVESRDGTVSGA

Row | SMILES | Emax at 16 h, 1 µM (PXR (NR1I2) [1]) [%] | Emax at 16 h, 5 µM (PXR (NR1I2) [2]) [%] | other results
1 | C[C@H](NS(=O)(=O)c1ccc(-c2sc(C(=O)NCC(C)(C)O)nc2Cc2ccc(F)cc2)c(Cl)c1Cl)C(F)(F)F | 80 | 134 | –
2 | CC(C)(CCO)NS(=O)(=O)c1ccc(-c2sc(C(=O)N[C@H]3C[C@H](C(=O)O)C3)nc2CC2CCCCC2)c2ccccc12 | 15 | 53 | –
3 | CCC(C)(C)NS(=O)(=O)c1ccc(-c2sc(C(=O)N[C@H]3C[C@H](C(=O)O)C3)nc2CC2CCCCC2)c2ccccc12 | 116 | 158 | –
4 | C[C@H](NC(=O)c1cc(-c2sc(C(=O)N[C@H]3C[C@H](C(=O)O)C3)nc2CC2CCCCC2)cc(C2(C#N)CC2)c1)C(F)(F)F | 3.1 | 7.5 | –
5 | C[C@H](NS(=O)(=O)c1ccc(-c2sc(C(=O)N[C@H]3C[C@H](C(=O)O)C3)nc2CC2CCC2)c2ccccc12)C(F)(F)F | 40 | 118 | –
6 | CC(C)(C)NS(=O)(=O)c1ccc(-c2sc(C(=O)NC3CCOCC3)nc2CC2CCCCC2)c2ccccc12 | 181 | – | Emax at 16 h, 10 µM (PXR (NR1I2) [3]): 206%
7 | CC(C)(C)NS(=O)(=O)c1ccc(-c2sc(C(=O)N[C@H]3C[C@H](C(=O)O)C3)nc2CC2CCCCC2)c(Cl)c1Cl | 16 | – | Emax at 16 h, 10 µM (PXR (NR1I2) [3]): 23%
8 | CC(C)(O)CNC(=O)c1nc(CC2CCCCC2)c(-c2ccc(S(=O)(=O)NC(C)(C)C)c3ccccc23)s1 | 138 | 116 | –
9 | C[C@H](NS(=O)(=O)c1ccc(-c2sc(C(=O)NCC(C)(C)O)nc2COC(C)(C)C)c(Cl)c1Cl)C(F)(F)F | 61 | 117 | INH (Cytochrome P450 2C9): 1.7 µM; INH (Cytochrome P450 2C8): > 10 µM; INH (Cytochrome P450 2D6): > 10 µM; INH (Cytochrome P450 2C19): 6.5 µM; half-life [4]: > 180 min; INH (Cytochrome P450 3A4): > 10 µM; solubility thermodynamic at 10000 µM [5]: 12 µM (≈ 7.28 µg/mL); half-life [6]: > 180 min
10 | CC(C)(C)NS(=O)(=O)c1ccc(-c2sc(C(=O)NCC3CS(=O)(=O)C3)nc2CC2CCCCC2)c2ccccc12 | 140 | 147 | –
11 | CC(C)(CCF)NS(=O)(=O)c1ccc(-c2sc(C(=O)N[C@H]3C[C@H](C(=O)O)C3)nc2CC2CCCCC2)c2ccccc12 | 91 | 117 | –
12 | C[C@H](NS(=O)(=O)c1cc(-c2sc(C(=O)N[C@H]3C[C@H](C(=O)O)C3)nc2CC2CCCCC2)cc(C(C)(C)C)c1)C(F)(F)F | 157 | 159 | –
13 | CC(C)(C)NS(=O)(=O)c1ccc(-c2sc(C(=O)N3CC4(CCS(=O)(=O)CC4)C3)nc2CC2CCCCC2)c2ccccc12 | 116 | – | Emax at 16 h, 10 µM (PXR (NR1I2) [3]): 128%
14 | CC(C)(O)CNC(=O)c1nc(CC2CCCCC2)c(-c2ccc(S(=O)(=O)NC(C)(C)C)c(Cl)c2C(F)F)s1 | – | – | INH (Cytochrome P450 2C9): 0.4 µM; INH (Cytochrome P450 2C8): 4.6 µM; INH (Cytochrome P450 2D6): > 10 µM; INH (Cytochrome P450 2C19): 5.6 µM; INH (Cytochrome P450 1A2): > 10 µM; half-life [4]: 14 min; INH (Cytochrome P450 3A4): 6.9 µM; half-life [6]: 18 min
15 | CC(C)(C)c1cc(-c2sc(C(=O)N[C@H]3C[C@H](C(=O)O)C3)nc2CC2CCCCC2)cc(C(O)(C(F)(F)F)C(F)(F)F)c1 | 41 | 89 | –
16 | CC(C)(C)NS(=O)(=O)c1ccc(-c2sc(C(=O)NCC(C)(C)C(N)=O)nc2CC2CCCCC2)c2ccccc12 | 110 | 142 | –
17 | C[C@H](NS(=O)(=O)c1ccc(-c2sc(C(=O)NCC(C)(C)O)nc2CC2CC(F)(F)C2)c2ccccc12)C(F)(F)F | 71 | 80 | –
18 | CC(C)(O)CNC(=O)c1nc(CC2CCCCC2)c(-c2ccc(S(=O)(=O)NC3(C#N)CC3)c3ccccc23)s1 | 155 | – | INH (Cytochrome P450 2C9): 0.7 µM; INH (Cytochrome P450 2C8): 7.3 µM; INH (Cytochrome P450 2D6): > 10 µM; INH (Cytochrome P450 2C19): 6.3 µM; INH (Cytochrome P450 1A2): > 10 µM; half-life [4]: 15 min; Emax at 16 h, 10 µM (PXR (NR1I2) [3]): 167%; INH (Cytochrome P450 3A4): 0.9 µM; solubility thermodynamic at 10000 µM [5]: 10 µM (≈ 5.67 µg/mL); half-life [6]: 27 min
19 | CC(C)(C)NC(=O)c1cc(-c2sc(C(=O)N[C@H]3C[C@H](C(=O)O)C3)nc2CC2CCCCC2)cc(C2(C)CC2)c1 | 11 | – | Emax at 16 h, 10 µM (PXR (NR1I2) [3]): 53%
20 | C[C@H](NS(=O)(=O)c1ccc(-c2sc(C(=O)N3CC4(C3)CS(=O)(=O)C4)nc2CC2CCC2)c(Cl)c1Cl)C(F)(F)F | 56 | 106 | –
21 | CC(C)(C)NS(=O)(=O)c1ccc(-c2sc(C(=O)NC34CC(C(=O)O)(C3)C4)nc2CC2CCCCC2)c2ccccc12 | 69 | – | Emax at 16 h, 10 µM (PXR (NR1I2) [3]): 116%
22 | CC(C)(O)CNC(=O)c1nc(CC2CCCCC2)c(-c2cnc(S(=O)(=O)NC(C)(C)C)c3ccccc23)s1 | – | – | INH (Cytochrome P450 2C9): 1.1 µM; INH (Cytochrome P450 2C8): > 10 µM; INH (Cytochrome P450 2D6): > 10 µM; INH (Cytochrome P450 2C19): 7.6 µM; INH (Cytochrome P450 1A2): > 10 µM; half-life [4]: 5.2 min; INH (Cytochrome P450 3A4): > 10 µM; solubility thermodynamic at 10000 µM [5]: < 4 µM; half-life [6]: 23 min
23 | C[C@H](NC(=O)c1cc(-c2sc(C(=O)N[C@H]3C[C@H](C(=O)O)C3)nc2CC2CCCCC2)cc(C(C)(C)C)c1)C(F)(F)F | 29 | 59 | –
24 | CC(C)(C)NS(=O)(=O)c1ccc(-c2sc(C(=O)NC3CCS(=O)(=O)CC3)nc2C(C)(C)C)c2ccccc12 | 66 | 112 | –
25 | CC[C@H](NC(=O)c1cc(-c2sc(C(=O)N[C@H]3C[C@H](C(=O)O)C3)nc2CC2CCCCC2)cc(C2(C)CC2)c1)C(F)(F)F | 32 | 71 | –
26 | CCS(=O)(=O)c1ccc(CNC(=O)c2nc(CC3CCCCC3)c(-c3ccc(S(=O)(=O)NC(C)(C)C)c4ccccc34)s2)cc1 | 26 | – | Emax at 16 h, 10 µM (PXR (NR1I2) [3]): 94%
27 | CC(C)(C)NS(=O)(=O)c1ccc(-c2sc(C(=O)NC3CS(=O)(=O)C3)nc2CC2CCCCC2)c2ccccc12 | 181 | – | Emax at 16 h, 10 µM (PXR (NR1I2) [3]): 187%
